# Assay results: EPA's ToxValDB 9.5 (doi:10.2903/j.efsa.2015.4206)
# What was measured:
# [1] = system: Apis mellifera; settings: acute, mortality
# [2] = system: Bibionidae; settings: chronic/long-term; duration: 28 days; development
# [3] = system: Canidae; settings: oral, Dog Other
# [4] = system: Colinus virginianus; settings: acute; oral; mortality
# [5] = system: Coturnix japonica
# [6] = system: Daphnia magna; settings: chronic/long-term; duration: 21 days; reproduction
# [7] = system: Folsomia candida; settings: chronic/long-term; duration: 28 days
# [8] = system: Hypoaspis aculeifer; settings: chronic/long-term; duration: 14 days
# [9] = system: Oncorhynchus mykiss; settings: chronic/long-term; duration: 21 days; growth
# [10] = system: Rattus norvegicus
# [11] = system: Tagia sp.
# [12] = system: Aphidius rhopalosiphi; test: LR50; higher = less toxic; settings: not reported; mortality
# [13] = system: Typhlodromus pyri; test: LR50; higher = less toxic; settings: not reported; mortality
smiles,measurement,setting,value
CC(C)c1ccc(NC(=O)N(C)C)cc1 [Isoproturon],LD50,[1]; dermal,> 100 µg/piece
same,LD50,"[1]; oral, unspecified",> 99.2 µg/piece
same,NOEC,[2],0.344 mg/L
same,NOAEL,"[3]; short-term, histopathology: nonneoplastic",3.2 mg/kg-day
same,NOAEL,"[3]; subchronic, duration: 90 days, hematological",10 mg/kg-day
same,LD50,[4],1400 mg/kg-day
same,LC50,"[5]; acute, oral, diet, mortality",> 5000 mg/kg
same,NOAEL,"[5]; reproduction developmental, reproduction",12 mg/kg-day
same,NOEC,[6],0.12 mg/L
same,NOEC,[7],24.3 mg/kg
same,NOEC,[8],> 459 mg/kg
same,NOEC,[9],1 mg/L
same,LD50,"[10]; acute, mortality",1830 mg/kg-day
same,NOEC,[10]; chronic,10 mg/kg-day
same,NOAEL,"[10]; chronic, duration: 2 years, histopathology: neoplastic",3.1 mg/kg-day
same,LC50,"[11]; acute, duration: 14 days, mortality",> 500 mg/kg
same,NOEC,"[11]; chronic/long-term, duration: 8 weeks",14 mg/kg
same,LR50,[12],> 2500 g/ha
same,LR50,[13],> 2500 g/ha
